The results in this text go back to BindingDB's records for doi:10.1021/acs.biochem.5b00221 (Dalhousie University, 2015).

Structures are written as SMILES.

For this assay, the target named is T1, Mandelate racemase (Pseudomonas putida, UniProt P11444).
T1 sequence (P11444 whole entry): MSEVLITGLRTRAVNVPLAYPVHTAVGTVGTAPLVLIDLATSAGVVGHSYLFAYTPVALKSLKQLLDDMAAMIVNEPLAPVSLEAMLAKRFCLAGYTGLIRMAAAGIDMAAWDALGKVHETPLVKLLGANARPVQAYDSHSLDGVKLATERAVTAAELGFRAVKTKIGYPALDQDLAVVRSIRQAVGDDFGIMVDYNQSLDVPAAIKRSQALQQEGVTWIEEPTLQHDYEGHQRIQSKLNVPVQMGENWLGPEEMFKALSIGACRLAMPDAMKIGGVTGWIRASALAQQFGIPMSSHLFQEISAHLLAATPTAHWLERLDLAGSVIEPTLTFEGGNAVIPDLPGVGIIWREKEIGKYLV
Briefly: Circular Dichroism (CD) Based Assays. The note with it: pH 7.5. As for the experimental part:
MR activity was assayed using a CD-based assay by following the change in ellipticity of mandelate at 262 nm using a thermostated quartz cuvette with a 1-cm light path (unless otherwise indicated) as described by Sharp et al. Allassays (total volume of 2 mL) were conducted at 25 °C in Na+ HEPES buffer (0.1 M, pH 7.5) containing MgCl2 (3.3 mM), BSA [0.005% (w/v)], and (R)-mandelate as the substrate. The concentration of MR was determined from its absorbance at 280 nm using an extinction coefficient of 53400 M^−1 cm^−1.
(Circular dichroism is the unequal absorption of left and right circularly polarised light.)

By Ki is commonly meant the dissociation constant of the complex between target and ligand, obtained from inhibition or displacement. Low readings indicate tighter binding, high ones weaker binding. The compound `O=C(O)C(=O)CF` [3-fluoro-2-oxopropanoate] showed a Ki of 1.3 mM. This counts as millimolar.

Regarding `O=C(O)C(=O)C(=O)O` [Mesoxalate], affinity was put at a Ki of 1.8 mM. This Ki and that of the compound before are within 1.5-fold of each other.
